# US11272841B2, “Indicator fluids, systems, and methods for assessing movement of substances within, to or from a cerebrospinal fluid, brain or spinal cord compartment of a cranio-spinal cavity of a human” (BRAINWIDESOLUTIONS AS, priority 2017, dated 2022)
# Where “and” joins values, the source holds several entries; their conditions need not be identical. Equal entries are not always repeated. Marks after values point to notes of the source that are not given here.
# Experiment: Repeated standardized T1-weighted MRI: signal units (SU) in ROIs of CSF, venous space and brain tissue after intrathecal gadobutrol, iNPH versus reference patients (Tables 2-4, FIG. 14b, 16);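 as to Max Increase in SU of T1 signal, numerical change: Gadobutrol 0.5 mL of 1.0 mmol/mL given intrathecally into CSF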;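 as to Max Increase in SU of T1 signal, percentage change: Gadobutrol 0.5 mL of 1.0 mmol/mL given intrathecally into CSF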
# Assay type: in vivo, human
# Details: for Max Increase in SU of T1 signal, numerical change / Max Increase in SU of T1 signal, percentage change: one patient per row; for Average indication signal within brain tissue ROI: one individual, FIG. 14b
# Procedure: The different features of Aspect 2 are based on novel in-vivo observations in humans. […] In the following paragraphs, these novel observations in humans are commented on in more detail. In these studies, the MRI contrast agent gadobutrol served as indicator fluid and MRI SUs were indication signals. MRI T1 weighted signal units were measured when gadobutrol was present within CSF after having been administered to the CSF compartment, and were compared with MR images having identical sequence parameter settings and with no gadobutrol present in CSF. […] With a MW of 605 Da, gadobutrol is a rather large molecule in comparison to the MW of water (H2O) molecule, which is 18 Da. Clearance of gadobutrol is then indicative of clearance of other substances with similar properties.
# We explored both movement of the contrast agent within, to, and from the cranio-spinal cavity, including CSF, brain and spinal cord compartment, and from the cranio-spinal cavity to extra-cranial LNs. With gadobutrol present within CSF, blood level concentrations of contrast agents were determined at various time point. The repeated MRI acquisitions made it possible to create clearance curves for one or more pixels, defined by ROIs. ROIs were placed within CSF compartments, brain and spinal cord tissue compartments, and extracranial LN tissue compartments. By means of MRI, we could create graphic curves illustrating clearance of substances (clearance illustrating curves) for defined ROIs built up of a defied number of pixels for each individual. For details of said clearance curves, see FIG. 7. The establishment of clearance curves was dependent on repeated MRI acquisitions over a long period.
# Using MRI SUs, we created clearance illustrating curves, see FIG. 7, for the individual patients as well as for groups of individuals. Tables 2-4 illustrate various examples of parameter values of the clearance illustrating curves.
# Table 2, as discussed with FIG. 2, illustrates how maximum increase in SUs varies between individuals and patient groups. Tables 3 and 4 compare such clearance curve parameters from two patient groups, namely iNPH and reference (i.e. control) patients, illustrating inter-individual differences and differences between patient groups. These patient groups represent no limitation of the invention as it may be used in various patient groups such as Alzheimer's and dementia in general, brain tumor (e.g. astrocytoma), multiple sclerosis and inflammatory brain disease, stroke (brain infarction or bleeds), sleep disturbances, neurodegenerative disease, CSF circulation disorders, traumatic brain injury, neurometabolic diseases, glaucoma, chronic headache and migraine, and in assessment of ageing in general.
# Even though perfect match of ROIs of repeated images may be difficult to obtain, the second aspect of the invention is facilitated by that image acquisition parameters at repeated MRI acquisitions are kept fixed and thus standardized. […] Further, to make best possible alignments of pixels, methods for alignment of repeated MRI acquisitions need to be implemented. Methods for alignment of repeated MRI images belong to prior art. Aids to improve alignment may incorporate landmark locations such as the cranial vault, pineal gland, and ventricular system.
# Each image acquisition lasted 6 minutes and 29 seconds.
# [1] = CSF space: Lateral Ventricle, iNPH
# [2] = CSF space: Precentral sulcus, Reference
# [3] = CSF space: Precentral sulcus, iNPH
# [4] = CSF space: Sylvian fissure, Reference
# [5] = CSF space: Sylvian fissure, iNPH
# [6] = Central venous space: Sagittal sinus/confluence, Reference
# [7] = Central venous space: Sagittal sinus/confluence, iNPH
# [8] = Inferior frontal gyrus (IFG), REF
# [9] = Inferior frontal gyrus (IFG), iNPH
compound,measurement,setting,value
O=C([O-])CN1CCN(CC(=O)[O-])CCN([C@H](CO)[C@H](O)CO)CCN(CC(=O)[O-])CC1.[Gd+3] (racemic) [gadobutrol],Clearance coefficient (SU/min),[1],−0.05 ± 0.04 SU/min
same,Clearance time,[1],1115.1 ± 46.3 min
same,Enhancement coefficient (SU/min),[1],0.41 SU/min
same,Max increase (SU),[1],168.5 ± 99.8^b SU
same,Max reduction (SU),[1],−57.3 ± 48.9 SU
same,Time to peak,[1],843.4 ± 560.2 min
same,Clearance coefficient (SU/min),"CSF space: Pons, Reference",−0.25 ± 0.08 SU/min
same,Clearance time,"CSF space: Pons, Reference",1261.5 ± 137.0 min
same,Enhancement coefficient (SU/min),"CSF space: Pons, Reference",10.8 SU/min
same,Max reduction (SU),"CSF space: Pons, Reference",−313.3 ± 105.3 SU
same,Time to peak,"CSF space: Pons, Reference",159.8 ± 148.9 min
same,Clearance coefficient (SU/min),"CSF space: Pons, iNPH",−0.15 ± 0.08^b SU/min
same,Clearance time,"CSF space: Pons, iNPH",1207.9 ± 114.8 min
same,Enhancement coefficient (SU/min),"CSF space: Pons, iNPH",2.4 SU/min
same,Max reduction (SU),"CSF space: Pons, iNPH",−177.9 ± 95.5^b SU
same,Time to peak,"CSF space: Pons, iNPH",230.9 ± 98.4 min
same,Enhancement coefficient (SU/min),[2],0.29 SU/min
same,Max increase (SU),[2],87.8 ± 99.3 SU
same,Time to peak,[2],475.0 ± 601.9 min
same,Enhancement coefficient (SU/min),[3],0.10 SU/min
same,Max increase (SU),[3],131.1 ± 94.1 SU
same,Time to peak (min),[3],1254.7 ± 483.8^b min
same,Clearance coefficient (SU/min),[4],−0.12 ± 0.06 SU/min
same,Clearance time,[4],1162.6 ± 78.1 min
same,Enhancement coefficient (SU/min),[4],0.9 SU/min
same,Max increase (SU),[4],204.2 ± 104.4 SU
same,Max reduction (SU),[4],−133.0 ± 68.4 SU
same,Time to peak,[4],258.6 ± 114.8 min
same,Clearance coefficient (SU/min),[5],−0.06 ± 0.05^a SU/min
same,Clearance time,[5],1123.7 ± 41.1 min
same,Enhancement coefficient (SU/min),[5],0.57 SU/min
same,Max increase (SU),[5],226.2 ± 100.2 SU
same,Max reduction (SU),[5],−68.0 ± 51.2^a SU
same,Time to peak (min),[5],689.0 ± 536.3^a min
same,Clearance coefficient (SU/min),[6],−0.008 ± 0.003 SU/min
same,Clearance time,[6],1247.3 ± 175.9 min
same,Enhancement coefficient (SU/min),[6],0.41 SU/min
same,Max increase (SU),[6],7.4 ± 9.6 SU
same,Max reduction (SU),[6],−9.5 ± 3.9 SU
same,Time to peak,[6],524.4 ± 591.3 min
same,Clearance coefficient (SU/min),[7],−0.01 ± 0.006 SU/min
same,Clearance time,[7],1287.4 ± 150.9 min
same,Enhancement coefficient (SU/min),[7],0.16 SU/min
same,Max increase (SU),[7],8.1 ± 8.0 SU
same,Max reduction (SU),[7],−12.1 ± 6.7 SU
same,Time to peak,[7],350.2 ± 457.3 min
same,"Max Increase in SU of T1 signal, numerical change","Frontal horn, REF",23 SU and 7 (7%) SU and 4 SU and 4 (4%) SU and 3 (3%) SU and 9 SU and 17 SU
same,"Max Increase in SU of T1 signal, percentage change","Frontal horn, REF",37% and 7 (7%) and 3% and 4 (4%) and 3 (3%) and 8% and 21%
same,"Max Increase in SU of T1 signal, numerical change","Frontal horn, iNPH",13 SU and 103 SU and 35 SU and 76 SU and 92 SU and 50 SU and 2 (2%) SU and 49 SU and 53 SU and 42 SU and 8 SU and 19 SU and 21 SU
same,"Max Increase in SU of T1 signal, percentage change","Frontal horn, iNPH",15% (2×) and 204% and 40% and 159% and 131% and 98% and 2 (2%) and 126% and 110% and 70% and 22% and 23%
same,"Max Increase in SU of T1 signal, numerical change",[8],68 SU and 5 (5%) SU and 24 SU and 13 SU and 23 SU and 37 SU and 18 SU
same,"Max Increase in SU of T1 signal, percentage change",[8],80% and 5 (5%) and 27% and 14% and 25% and 41% and 21%
same,"Max Increase in SU of T1 signal, numerical change",[9],70 SU and 56 SU and 32 SU and 51 SU and 74 SU and 21 SU and 24 SU and 36 SU and 59 SU and 10 SU (2×) and −1 (−1%) SU and 25 SU
same,"Max Increase in SU of T1 signal, percentage change",[9],83% and 68% (2×) and 38% and 63% and 95% and 23% and 31% and 46% and 12% and −1 (−1%) and 11% and 28%
same,"Max Increase in SU of T1 signal, numerical change","Precentral gyrus, REF",10 SU and 1 (1%) SU and 8 SU and 2 (2%) SU and 6 SU and 34 SU and 3 SU
same,"Max Increase in SU of T1 signal, percentage change","Precentral gyrus, REF",12% and 1 (1%) and 9% and 2 (2%) and 7% and 41% and 4%
same,"Max Increase in SU of T1 signal, numerical change","Precentral gyrus, iNPH",28 SU and 7 SU and 7 (7%) SU and 2 (2%) SU (2×) and 18 SU and 5 (5%) SU and 8 SU and 2 SU and 6 SU (2×) and 4 SU and 3 SU
same,"Max Increase in SU of T1 signal, percentage change","Precentral gyrus, iNPH",32% and 8% and 7 (7%) and 2 (2%) (2×) and 22% and 5 (5%) and 10% and 3% and 7% (2×) and 5% and 4%
same,"Max Increase in SU of T1 signal, numerical change","Thalamus, REF",23 SU and 4 (4%) SU and 3 SU and 2 (2%) SU and 13 (13%) SU (2×) and 8 SU
same,"Max Increase in SU of T1 signal, percentage change","Thalamus, REF",26% and 4 (4%) and 2% and 2 (2%) and 13 (13%) (2×) and 9%
same,"Max Increase in SU of T1 signal, numerical change","Thalamus, iNPH",16 SU and 23 SU and 9 SU (2×) and 14 SU and 25 SU and 4 (4%) SU and 10 SU and 19 SU and 7 SU and 2 (2%) SU and 12 SU (2×)
same,"Max Increase in SU of T1 signal, percentage change","Thalamus, iNPH",18% and 24% and 11% (2×) and 17% and 28% and 4 (4%) and 12% and 21% and 8% and 2 (2%) and 14% and 13%
same,"Max Increase in SU of T1 signal, numerical change","brain tissue Pons, REF",20 SU and 5 (5%) SU (2×) and 3 (3%) SU and 9 (9%) SU and 7 (7%) SU and 9 SU
same,"Max Increase in SU of T1 signal, percentage change","brain tissue Pons, REF",21% and 5 (5%) (2×) and 3 (3%) and 9 (9%) and 7 (7%) and 10%
same,"Max Increase in SU of T1 signal, numerical change","brain tissue Pons, iNPH",17 (17%) SU and 24 (24%) SU and 15 SU and 21 SU and 14 (14%) SU and 4 (4%) SU (2×) and 9 SU (2×) and 18 (18%) SU and 3 (3%) SU and 2 (2%) SU and 6 (6%) SU
same,"Max Increase in SU of T1 signal, percentage change","brain tissue Pons, iNPH",17 (17%) and 24 (24%) and 16% and 24% and 14 (14%) and 4 (4%) (2×) and 10% (2×) and 18 (18%) and 3 (3%) and 2 (2%) and 6 (6%)
same,SU within ROI,"entorhinal cortex, FIG. 16h, intrathecal gadobutrol present for 24 hours (46 SU without)",136 SU
same,Average indication signal within brain tissue ROI,3 hours after intrathecal gadobutrol (80 SU without gadobutrol),83 SU
same,Average indication signal within brain tissue ROI,9 hours after intrathecal gadobutrol,103 SU
same,Average indication signal within brain tissue ROI,24 hours after intrathecal gadobutrol,107 SU
same,SU within ROI,"subcortical area of entorhinal cortex, FIG. 16f, intrathecal gadobutrol present for 24 hours (109 SU without)",180 SU
